Measurements: patent US8883782B2, “Spiro-tetracyclic ring compounds as beta-secretase modulators and methods of use” (Amgen Inc., priority 2010, dated 2014)
Read-outs that look alike come from different tables or passages of the source.

Assays:
[1] = tested on: Aβ40 in conditioned medium of cells stably expressing Amyloid Precursor Protein (APP); test: In vitro BACE cell-based assay (Aβ40 in conditioned medium, sandwich ELISA); details: Homo sapiens, read-out: HEK cell assay
How it was run: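 Secreted Aβ40 is captured with pAb40 and detected with biotinylated 6E10, read by europium time-resolved fluorescence. IC50 comes from percent inhibition versus concentration.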

[2] = target: Beta Secretase enzyme (BACE) (Homo sapiens, UniProt P56817); test: In vitro enzymatic BACE FRET (fluorescence resonance energy transfer) assay; assay type: biochemical; details: average IC50, enzyme assay; read-out: BACE 1 FRET assay
Chain of Beta Secretase enzyme (BACE) (P56817 46-501, species assumed): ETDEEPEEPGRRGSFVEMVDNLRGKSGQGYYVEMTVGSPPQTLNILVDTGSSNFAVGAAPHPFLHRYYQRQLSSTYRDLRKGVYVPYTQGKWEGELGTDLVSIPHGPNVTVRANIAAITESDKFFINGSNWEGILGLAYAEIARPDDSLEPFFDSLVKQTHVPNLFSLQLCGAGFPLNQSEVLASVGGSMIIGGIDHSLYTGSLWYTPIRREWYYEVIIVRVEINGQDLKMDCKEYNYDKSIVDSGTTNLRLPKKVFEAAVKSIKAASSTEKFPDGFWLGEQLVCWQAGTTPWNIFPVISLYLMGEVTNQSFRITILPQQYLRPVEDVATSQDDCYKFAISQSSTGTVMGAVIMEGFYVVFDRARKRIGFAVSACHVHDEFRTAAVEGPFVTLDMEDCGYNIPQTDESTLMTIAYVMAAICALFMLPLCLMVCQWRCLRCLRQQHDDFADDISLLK
How it was run: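 Cleavage of a 50 nM fluorophore/quencher peptide FRET substrate by BACE for 1 h in 0.05 M acetate pH 4.2, 10% DMSO, 100 uM genapol. Reaction stopped with Tris to neutral pH before fluorescence reading.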

[3] = HEK293, average IC50, HEK cells

Row | IC50 ([1]; HEK293, average IC50) [nM] | IC50 [2] [nM] | IC50 [1, 3] [nM] | SMILES
1 | 57 | 8.8 |  | COCC#Cc1cncc(-c2ccc3c(c2)C2(COC(N)=N2)c2cc(OC)cc(F)c2O3)c1 (centres unmarked) [Example 843, 4′-fluoro-2′-methoxy-7′-(5-(3-methoxy-1-propyn-1-yl)-3-pyridinyl)spiro[1,3-oxazole-4,9′-xanthen]-2-amine]
2 | 629 | 89.6 |  | NC1=N[C@@]2(CO1)c1cc(OCc3ccccn3)ccc1Oc1ncc(C3=CCOCC3)cc12 [Example 972, (5S)-3-(3,6-dihydro-2H-pyran-4-yl)-7-(2-pyridinylmethoxy)spiro[chromeno[2,3-b]pyridine-5,4′-[1,3]oxazol]-2′-amine]
3 |  | 32.5 | 506 | NC1=N[C@]2(CS1)c1cc(-c3cncnc3)c(F)cc1Oc1c(F)cc(C3=CCCOC3)cc12 [Example 874, (4R)-7′-(5,6-dihydro-2H-pyran-3-yl)-3′,5′-difluoro-2′-(5-pyrimidinyl)spiro[1,3-thiazole-4,9′-xanthen]-2-amine]
4 |  | 83 | 971 | NC1=N[C@@]2(CO1)c1cc(-c3ccncc3F)ccc1Oc1cnc(-c3cncc(F)c3)cc12 [Example 575, (5S)-7-(3-fluoro-4-pyridinyl)-3-(5-fluoro-3-pyridinyl)spiro[chromeno[2,3-c]pyridine-5,4′-[1,3]oxazol]-2′-amine]
5 |  | 0.5 | 33 | NC1=N[C@@]2(CS1)c1cc(-c3cccnc3F)ccc1Oc1cnc(N3CCC(F)(F)CC3)cc12 [Example 933, (5S)-3-(4,4-difluoro-1-piperidinyl)-7-(2-fluoro-3-pyridinyl)spiro[chromeno[2,3-c]pyridine-5,4′-[1,3]thiazol]-2′-amine]
6 | 294 | 14.1 |  | CC(C)CSc1cnc2c(c1)[C@]1(COC(N)=N1)c1cc(-c3cccnc3)ccc1O2 [Example 184, (5S)-3-((2-methylpropyl)sulfanyl)-7-(3-pyridinyl)spiro[chromeno[2,3-b]pyridine-5,4′-[1,3]oxazol]-2′-amine]
7 |  | 1730 | 10000 | COc1ccc2c(c1)C1(COC(N)=N1)c1cc(N3CCC(F)(F)C3)ncc1O2 (centres unmarked) [Example 431, 3-(3,3-difluoro-1-pyrrolidinyl)-7-methoxyspiro[chromeno[2,3-c]pyridine-5,4′-[1,3]oxazol]-2′-amine]
8 | 14.5 | 3.3 |  | CC1(C#Cc2cnc3c(c2)[C@]2(COC(N)=N2)c2cc(-c4cnccn4)ccc2O3)COC1 [Example 168, (5S)-3-((3-methyl-3-oxetanyl)ethynyl)-7-(2-pyrazinyl)spiro[chromeno[2,3-b]pyridine-5,4′-[1,3]oxazol]-2′-amine]
9 | 336 | 45.6 |  | NC1=N[C@@]2(CO1)c1cc(OCc3ccc(Br)cc3)ccc1Oc1ncc(-c3cccnc3)cc12 [Example 980, (5S)-7-((4-bromobenzyl)oxy)-3-(3-pyridinyl)spiro[chromeno[2,3-b]pyridine-5,4′-[1,3]oxazol]-2′-amine]
10 |  | 1.5 | 612 | NC1=N[C@@]2(CO1)c1cc(-c3cccc(Cl)c3)ccc1Oc1cnc(-c3cccc(Cl)c3)cc12 [Example 527, (5S)-3,7-bis(3-chlorophenyl)spiro[chromeno[2,3-c]pyridine-5,4′-[1,3]oxazol]-2′-amine]
11 | 70 | 15.5 |  | COc1nc(C2CCCOC2)cc2c1Oc1ccc(-c3cccnc3)cc1[C@@]21COC(N)=N1 (stereo partly drawn) [Example 845, (5S)-1-methoxy-7-(3-pyridinyl)-3-(tetrahydro-2H-pyran-3-yl)spiro[chromeno[2,3-c]pyridine-5,4′-[1,3]oxazol]-2′-amine]
12 |  | 84.5 | 336 | COc1ncc(-c2ccc3c(c2)[C@@]2(COC(N)=N2)c2cc(N4CC[C@@H](F)C4)ncc2O3)cn1 [Example 417, (5S)-3-((3R)-3-fluoro-1-pyrrolidinyl)-7-(2-methoxy-5-pyrimidinyl)spiro[chromeno[2,3-c]pyridine-5,4′-[1,3]oxazol]-2′-amine]
13 | 5.6 | 3.1 |  | NC1=N[C@@]2(CO1)c1cc(-c3ccc(F)nc3)ccc1Oc1c(F)cc(N3C[C@@H]4C[C@H]3CO4)cc12 [Example 302, (4S)-4′-fluoro-7′-(6-fluoro-3-pyridinyl)-2′-((1S,4S)-2-oxa-5-azabicyclo[2.2.1]hept-5-yl)spiro[1,3-oxazole-4,9′-xanthen]-2-amine]
14 |  | 3.9 | 34 | Cc1ccn(-c2cc(F)c3c(c2)[C@]2(COC(N)=N2)c2cc(-c4cccnc4)ccc2O3)n1 [Example 633, (4S)-4′-fluoro-2′-(3-methyl-1H-pyrazol-1-yl)-7′-(3-pyridinyl)spiro[1,3-oxazole-4,9′-xanthen]-2-amine]
15 |  | 0.6 | 15 | NC1=N[C@@]2(CO1)c1cc(-c3cccnc3F)c(F)cc1Oc1c(F)cc(C3CCOCC3)cc12 [Example 872, (4S)-3′,5′-difluoro-2′-(2-fluoro-3-pyridinyl)-7′-(tetrahydro-2H-pyran-4-yl)spiro[1,3-oxazole-4,9′-xanthen]-2-amine]
16 |  | 20.8 | 50.8 | Cc1cc(-c2ccc3c(c2)[C@@]2(COC(N)=N2)c2cc(C4=CCOCC4)cnc2O3)cnc1F [Example 467, (5S)-3-(3,6-dihydro-2H-pyran-4-yl)-7-(6-fluoro-5-methyl-3-pyridinyl)spiro[chromeno[2,3-b]pyridine-5,4′-[1,3]oxazol]-2′-amine]
17 |  | 2 | 5 | Cc1ccc(-c2cnc3c(c2)[C@]2(CSC(N)=N2)c2cc(-c4cccnc4F)ccc2O3)cn1 [Example 582, (5S)-7-(2-fluoro-3-pyridinyl)-3-(6-methyl-3-pyridinyl)spiro[chromeno[2,3-b]pyridine-5,4′-[1,3]thiazol]-2′-amine]
18 |  | 3.3 | 129 | CC1(C#Cc2cc(F)c3c(c2)C2(COC(N)=N2)c2cc(-c4cccnc4F)ncc2O3)COC1 (centres unmarked) [Example 662, 9-fluoro-3-(2-fluoro-3-pyridinyl)-7-((3-methyl-3-oxetanyl)ethynyl)spiro[chromeno[2,3-c]pyridine-5,4′-[1,3]oxazol]-2′-amine]
19 |  | 54.2 | 1490 | CC1(C#Cc2cc3c(nc2F)Oc2ccc(-c4cncc(F)c4)cc2[C@]32COC(N)=N2)COC1 [Example 906, (5R)-2-fluoro-7-(5-fluoro-3-pyridinyl)-3-((3-methyl-3-oxetanyl)ethynyl)spiro[chromeno[2,3-b]pyridine-5,4′-[1,3]oxazol]-2′-amine]
20 | 20 | 0.2 |  | CC#Cc1cncc(-c2ccc3c(c2)[C@@]2(COC(N)=N2)c2cc(OC)cc(F)c2O3)c1 [Example 824, (4S)-4′-fluoro-2′-methoxy-7′-(5-(1-propyn-1-yl)-3-pyridinyl)spiro[1,3-oxazole-4,9′-xanthen]-2-amine]
21 | ≥ 10000 | 604 |  | CC1(C#Cc2cncc(-c3ccc4c(c3)[C@@]3(COC(N)=N3)c3cc(Cl)ncc3O4)c2)COC1 [Example 810, (5S)-3-chloro-7-(5-((3-methyl-3-oxetanyl)ethynyl)-3-pyridinyl)spiro[chromeno[2,3-c]pyridine-5,4′-[1,3]oxazol]-2′-amine]
22 | 11.3 | 1.4 |  | NC1=N[C@@]2(CO1)c1cc(-c3cccnc3F)ccc1Oc1c(F)cc(-c3ccncn3)cc12 [Example 212, (4S)-4′-fluoro-7′-(2-fluoro-3-pyridinyl)-2′-(4-pyrimidinyl)spiro[1,3-oxazole-4,9′-xanthen]-2-amine]
